Results: patent US10016438B2, “Bicyclic heterocycles as FGFR4 inhibitors” (Incyte Corporation, priority 2015, dated 2018)

Key:
FGFR3 = FGFR3 (Homo sapiens (Human), UniProt P22607); test: FGFR Enzymatic Assay (FRET peptide phosphorylation), FGFR3; settings: read-out: FGFR3 IC50; pre-incubated for 4 hours
Source text: (§1) The enzymes were purchased from Millipore or Invitrogen.
(§2) GraphPad prism3 was used to analyze the data. The IC50 values were derived by fitting the data to the equation for a sigmoidal dose-response with a variable slope. Y=Bottom+(Top−Bottom)/(1+10^((Log IC50−X)*HillSlope)) where X is the logarithm of concentration and Y is the response.

FGFR1 = FGFR1 (Homo sapiens (Human), UniProt P11362); test: FGFR Enzymatic Assay (FRET peptide phosphorylation), FGFR1; settings: read-out: FGFR1 IC50; pre-incubated for 4 hours
Source text: as §1, §2

FGFR2 = FGFR2 (Homo sapiens (Human), UniProt P21802); test: FGFR Enzymatic Assay (FRET peptide phosphorylation), FGFR2; settings: read-out: FGFR2 IC50; pre-incubated for 4 hours
FGFR2, sequence (P21802 22-821): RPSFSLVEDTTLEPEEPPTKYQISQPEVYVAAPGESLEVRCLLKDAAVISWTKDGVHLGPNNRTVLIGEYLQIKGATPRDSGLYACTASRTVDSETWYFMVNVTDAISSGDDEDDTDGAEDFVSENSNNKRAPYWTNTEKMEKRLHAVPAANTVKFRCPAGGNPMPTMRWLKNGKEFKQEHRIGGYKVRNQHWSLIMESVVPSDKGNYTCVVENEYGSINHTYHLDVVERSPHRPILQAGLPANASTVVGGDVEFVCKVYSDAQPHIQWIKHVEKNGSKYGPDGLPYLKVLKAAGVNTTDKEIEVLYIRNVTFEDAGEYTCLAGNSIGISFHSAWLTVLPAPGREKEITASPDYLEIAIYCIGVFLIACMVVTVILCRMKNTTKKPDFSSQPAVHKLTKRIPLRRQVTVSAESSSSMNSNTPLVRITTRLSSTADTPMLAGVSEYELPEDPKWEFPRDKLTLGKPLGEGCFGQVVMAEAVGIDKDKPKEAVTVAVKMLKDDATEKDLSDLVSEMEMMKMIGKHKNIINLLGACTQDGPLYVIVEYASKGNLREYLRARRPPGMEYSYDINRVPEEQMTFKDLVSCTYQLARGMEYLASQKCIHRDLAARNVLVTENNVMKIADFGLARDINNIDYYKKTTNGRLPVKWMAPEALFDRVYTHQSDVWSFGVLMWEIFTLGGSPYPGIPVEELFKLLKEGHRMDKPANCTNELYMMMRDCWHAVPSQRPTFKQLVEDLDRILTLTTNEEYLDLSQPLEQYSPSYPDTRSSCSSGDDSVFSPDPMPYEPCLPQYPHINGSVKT
Source text: as §1, §2

FGFR4 = FGFR4 (Homo sapiens (Human), UniProt P22455); test: FGFR Enzymatic Assay (FRET peptide phosphorylation), FGFR4; settings: pre-incubated for 4 hours; for FGFR1/FGFR4 / FGFR2/FGFR4 / FGFR3/FGFR4: IC50 ratio showing FGFR4 selectivity
FGFR4, sequence (P22455 22-802): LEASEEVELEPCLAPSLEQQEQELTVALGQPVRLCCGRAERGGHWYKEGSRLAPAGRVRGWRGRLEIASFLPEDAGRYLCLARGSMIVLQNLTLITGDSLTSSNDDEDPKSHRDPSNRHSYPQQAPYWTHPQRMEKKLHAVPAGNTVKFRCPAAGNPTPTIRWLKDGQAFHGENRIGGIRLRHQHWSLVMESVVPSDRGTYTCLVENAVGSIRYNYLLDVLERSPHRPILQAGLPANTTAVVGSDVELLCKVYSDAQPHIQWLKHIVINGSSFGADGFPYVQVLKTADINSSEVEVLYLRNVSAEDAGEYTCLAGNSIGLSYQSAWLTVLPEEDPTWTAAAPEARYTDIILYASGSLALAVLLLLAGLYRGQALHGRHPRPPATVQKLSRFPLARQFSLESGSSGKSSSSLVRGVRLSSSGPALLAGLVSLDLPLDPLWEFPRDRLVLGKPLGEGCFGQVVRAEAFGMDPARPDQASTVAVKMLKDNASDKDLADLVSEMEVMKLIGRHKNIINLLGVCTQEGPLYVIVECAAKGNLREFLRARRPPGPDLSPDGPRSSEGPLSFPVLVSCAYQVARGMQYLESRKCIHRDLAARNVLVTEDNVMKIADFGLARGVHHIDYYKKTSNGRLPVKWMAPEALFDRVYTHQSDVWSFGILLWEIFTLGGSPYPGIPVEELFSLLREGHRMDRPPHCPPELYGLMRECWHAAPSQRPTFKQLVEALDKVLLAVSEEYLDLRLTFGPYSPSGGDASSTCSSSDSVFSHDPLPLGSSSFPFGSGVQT
Source text: as §1, §2

FGFR1, sequence (P11362 22-822): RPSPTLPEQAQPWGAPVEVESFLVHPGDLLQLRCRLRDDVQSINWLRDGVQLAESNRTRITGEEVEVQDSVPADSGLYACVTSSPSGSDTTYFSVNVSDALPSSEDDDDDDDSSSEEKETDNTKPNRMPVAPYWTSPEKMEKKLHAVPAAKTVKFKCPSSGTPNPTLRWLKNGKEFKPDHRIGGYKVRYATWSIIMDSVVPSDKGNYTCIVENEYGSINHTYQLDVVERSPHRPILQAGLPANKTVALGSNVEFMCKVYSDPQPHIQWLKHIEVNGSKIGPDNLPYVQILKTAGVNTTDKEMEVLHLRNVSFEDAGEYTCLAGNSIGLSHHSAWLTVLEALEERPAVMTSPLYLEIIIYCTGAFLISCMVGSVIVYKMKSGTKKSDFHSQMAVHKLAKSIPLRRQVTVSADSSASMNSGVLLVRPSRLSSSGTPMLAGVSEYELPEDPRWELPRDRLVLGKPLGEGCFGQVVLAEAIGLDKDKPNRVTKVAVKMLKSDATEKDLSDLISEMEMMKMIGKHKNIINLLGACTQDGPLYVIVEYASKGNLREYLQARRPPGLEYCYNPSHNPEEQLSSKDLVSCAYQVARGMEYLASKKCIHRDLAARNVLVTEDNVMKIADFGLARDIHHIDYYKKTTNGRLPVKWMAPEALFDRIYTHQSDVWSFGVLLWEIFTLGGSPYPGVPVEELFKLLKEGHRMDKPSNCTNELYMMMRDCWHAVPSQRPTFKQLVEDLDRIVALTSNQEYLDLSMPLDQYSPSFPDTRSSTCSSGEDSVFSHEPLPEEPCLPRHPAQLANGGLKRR
FGFR3, sequence (P22607 23-806): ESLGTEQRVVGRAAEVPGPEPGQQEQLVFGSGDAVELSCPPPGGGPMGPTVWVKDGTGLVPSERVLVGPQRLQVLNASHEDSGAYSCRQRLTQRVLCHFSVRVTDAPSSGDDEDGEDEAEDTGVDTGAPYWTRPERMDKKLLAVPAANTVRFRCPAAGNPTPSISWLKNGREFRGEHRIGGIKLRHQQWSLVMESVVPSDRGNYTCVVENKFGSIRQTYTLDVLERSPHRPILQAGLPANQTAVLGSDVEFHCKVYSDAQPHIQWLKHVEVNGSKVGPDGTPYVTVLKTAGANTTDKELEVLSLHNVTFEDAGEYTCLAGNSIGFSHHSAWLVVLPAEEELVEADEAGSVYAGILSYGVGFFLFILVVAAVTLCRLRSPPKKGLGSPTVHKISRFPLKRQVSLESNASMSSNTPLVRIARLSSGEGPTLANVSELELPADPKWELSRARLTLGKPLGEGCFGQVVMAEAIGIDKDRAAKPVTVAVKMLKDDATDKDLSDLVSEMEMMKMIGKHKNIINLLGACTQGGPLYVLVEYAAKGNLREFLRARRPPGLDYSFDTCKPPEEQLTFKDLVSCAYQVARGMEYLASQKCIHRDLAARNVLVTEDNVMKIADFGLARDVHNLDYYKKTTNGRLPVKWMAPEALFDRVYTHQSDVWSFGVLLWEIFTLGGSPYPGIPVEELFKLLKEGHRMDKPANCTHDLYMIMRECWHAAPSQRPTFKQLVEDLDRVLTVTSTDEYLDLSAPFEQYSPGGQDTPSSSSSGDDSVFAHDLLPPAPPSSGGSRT

Row | IC50 (FGFR3) | IC50 (FGFR1) | IC50 (FGFR2) | FGFR1/FGFR4 (FGFR4) | FGFR2/FGFR4 (FGFR4) | FGFR3/FGFR4 (FGFR4) | IC50 (FGFR4; read-out: FGFR4 IC50) | SMILES
1 | > 200 nM | > 200 nM | > 200 nM | >50 | >100 | >100 |  | C=CC(=O)Nc1cnn(CC(=O)NC)c1-c1cc2c(cn1)CN(c1c(F)c(OC)cc(OC)c1F)C(=O)C21CC1 [Example 20, N-(5-(2′-(2,6-difluoro-3,5-dimethoxyphenyl)-3′-oxo-2′,3′-dihydro-1′H-spiro[cyclopropane-1,4′-[2,7]naphthyridine]-6′-yl)-1-(2-(methylamino)-2-oxoethyl)-1H-pyrazol-4-yl)acrylamide]
2 | > 200 nM | > 200 nM | > 200 nM | >100 | >100 | >100 | < 10 nM | C=CC(=O)Nc1cnn(C[C@@H]2CCCO2)c1-c1cc2c(cn1)CN(c1c(F)c(OC)cc(OC)c1F)C(=O)C21CC1 [Example 31, (S)-N-(5-(2′-(2,6-difluoro-3,5-dimethoxyphenyl)-3′-oxo-2′,3′-dihydro-1′H-spiro[cyclopropane-1,4′-[2,7]naphthyridine]-6′-yl)-1-((tetrahydrofuran-2-yl)methyl)-1H-pyrazol-4-yl)acrylamide]
3 |  |  |  | >100 | >100 | >100 |  | C=CC(=O)Nc1cn(CC(=O)N(C)C)nc1-c1cc2c(cn1)CN(c1c(F)c(OC)cc(OC)c1F)C(=O)C21CC1 [Example 36, N-(3-(2′-(2,6-difluoro-3,5-dimethoxyphenyl)-3′-oxo-2′,3′-dihydro-1′H-spiro[cyclopropane-1,4′-[2,7]naphthyridine]-6′-yl)-1-(2-(dimethylamino)-2-oxoethyl)-1H-pyrazol-4-yl)acrylamide]
4 |  |  |  | >100 | >100 | >100 |  | C=CC(=O)Nc1ccc(C)c(-c2ncc3c(n2)C2(CC2)C(=O)N(c2c(F)c(OC)cc(OC)c2F)C3)c1 [Example 37, N-(3-(6′-(2,6-difluoro-3,5-dimethoxyphenyl)-7′-oxo-6′,7′-dihydro-5′H-spiro[cyclopropane-1,8′-pyrido[4,3-d]pyrimidine]-2′-yl)-4-methylphenyl)acrylamide]
